In publication PMC6429087, “Identification of Leishmania major UDP-Sugar Pyrophosphorylase Inhibitors Using Biosensor-Based Small Molecule Fragment Library Screening” (Molecules, 2019):
Where two headings read alike, the source gives them in different places.

Assays:
LmUSP [1] = molecular target: T1, LmUSP (Leishmania major, UniProt D3G6S4); experiment: HPLC-based enzyme activity assay, LmUSP (UDP-Gal production); assay type: biochemical; details: for IC50: 95% confidence intervals, concentrations 7 µM to 500 µM; for inhibition at 500 µM: 500 µM compound, 10% DMSO, read-out: inhibition of LmUSP activity (UDP-Gal production) compared to DMSO control
Method: (§1) Compounds were tested at a concentration of 500 µM with 20 nM enzyme in an high-performance liquid chromatography (HPLC)-based assay at a final reaction volume of 100 µL. The DMSO concentration in the reaction was kept at 10%. The reaction buffer consisted of 10 mM Tris-HCl pH 8.0, 2 mM MgCl2, 10 mM NaCl, 0.005 U of inorganic pyrophosphatase (Thermo Fisher Scientific, Vilnius, Lithuania), and 1 mM Dithiothreitol (DTT) (for LmUSP and LmUGP only). Protein was incubated with the inhibitors and UTP (final concentration of 0.8 mM in reaction) for 30 min at room temperature, before the addition of the reaction buffer. […] The samples were spun down and the supernatants applied to a Dionex CarboPac™ PA10 column (Thermo Fisher Scientific, Sunnyvale, CA, USA). UDP-Gal or UDP-Glc (products) were separated from UTP (substrate), UMP, and UDP (both, UTP hydrolysis products) with a NaCl gradient elution ranging from 0 to 500 mM NaCl over 13 min at 0.6 mL/min. Absorption of the uracil moiety was detected at 260 nm. The peak area of UDP-Gal or UDP-Glc in reactions with inhibitors was compared to a control containing 10% DMSO. Protein concentrations were calculated from the measured UV-absorbance at 280 nm (Implen NanoPhotometer N60, Implen GmbH, München, Germany), and the proteins’ individual extinction coefficients were calculated using the online ProtParam tool (http://web.expasy.org/protparam/). […] Corresponding IC50 values were calculated by using nonlinear regression analysis with variable slope, in GraphPad Prism version 4.00 (GraphPad Software, San Diego, CA, USA).

LmUGP = LmUGP (Leishmania major, UniProt Q4QDU3); experiment: HPLC-based enzyme activity assay, LmUGP (UDP-Glc production); assay type: biochemical; details: for IC50: 95% confidence intervals, concentrations 7 µM to 500 µM; for inhibition at 500 µM: 500 µM compound, 10% DMSO
Method: as §1

[2] = system: O=P(O)(O)O[C@H]1O[C@H](CO)[C@H](O)[C@H](O)[C@H]1O; experiment: purified protein, by the assay type; details: 0.8 mM UTP, 25 °C, pH 8.0
hUGP = molecular target: T2, hUGP (Homo sapiens, UniProt Q16851); experiment: HPLC-based enzyme activity assay, hUGP; assay type: biochemical; details: 10% DMSO; for inhibition of hUGP (in words): 500 µM / high compound concentration; for decrease of hUGP activity: 500 µM compound
T2 construct: made in house
T2 sequence (Q16851 1-508): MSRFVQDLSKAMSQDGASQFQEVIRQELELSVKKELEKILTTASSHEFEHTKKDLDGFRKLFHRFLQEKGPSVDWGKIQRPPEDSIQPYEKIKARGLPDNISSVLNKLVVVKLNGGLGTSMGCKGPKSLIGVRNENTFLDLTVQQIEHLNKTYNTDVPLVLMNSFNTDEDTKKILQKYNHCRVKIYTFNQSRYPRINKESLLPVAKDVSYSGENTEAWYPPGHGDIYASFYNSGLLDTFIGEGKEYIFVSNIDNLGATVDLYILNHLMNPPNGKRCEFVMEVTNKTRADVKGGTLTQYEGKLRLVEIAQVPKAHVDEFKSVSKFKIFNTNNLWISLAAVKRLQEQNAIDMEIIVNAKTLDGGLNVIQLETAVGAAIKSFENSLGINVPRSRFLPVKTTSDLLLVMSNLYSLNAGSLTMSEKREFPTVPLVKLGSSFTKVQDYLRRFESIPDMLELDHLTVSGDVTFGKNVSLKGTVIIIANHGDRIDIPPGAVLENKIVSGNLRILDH
Method: as §1

LmUSP [3] = molecular target: T1, LmUSP; experiment: Bio-layer interferometry (BLI) binding to biotinylated LmUSP on Super Streptavidin biosensors; details: for Primary Binding Response: BLI primary screen, fragment 200 µM, 200 µM UTP in running buffer
Method: A vector containing the His(6)-biotin acceptor peptide (BAP) tag was kindly provided by Prof. Mike Ferguson from the University of Dundee. The BAP tag was inserted in the XbaI and NdeI restrictions site of the previously described pET22b-LmUSP [21]. The plasmid with insert was then transformed into the E. coli BL21(DE3) expression strain, and LmUSP was expressed and purified, as described previously. Exactly 2 mg of TEV protease was added to cleave off the His tag. The protein was dialyzed in 3 × 1 L Buffer C (50 mM TRIS pH 8.0, 150 mM NaCl, 10 mM MgCl2). A concentration of 100 µM D-Biotin, 500 µM ATP, and […] BirA enzyme were added to the protein and incubated for 18 hr for biotinylation. The sample was concentrated to 11 mL, using a Vivaspin 20 30 kDa PES centrifugal concentrator (Sartorious, Stonehouse, United Kingdom). The protein was loaded onto a Superdex 200 XK26/60 equilibrated with Buffer C on the AKTA Pure at 4 °C. The eluted monomeric protein was then concentrated to 0.98 mg/mL using a Vivaspin 20 30 kDa PES centrifugal concentrator, and used for loading onto super streptavidin (SSA) biosensors (Fortebio, Shanghai, China, Part No. 18-5057, Lot No. 1612162).
The loading response to SSA biosensors was measured to find the optimal protein concentration to be used for the screen. Briefly, biosensor tips were hydrated in assay buffer (50 mM Tris pH 8.0, 150 mM NaCl, 10 mM MgCl2) for a minimum of 5 min before being sequentially transferred to assay wells containing 1) assay buffer (60 s) to establish the baseline, 2) protein at 12.5, 25, or 50 µg/mL (900 s) to measure protein loading, and 3) assay buffer to assess the reversibility of protein binding to the sensor.
For fragment screening, 16 SSA biosensors were prepared by loading LmUSP (12.5 µg/mL) for 900 s; free streptavidin sites were then blocked with biocytin (10 µg/mL) for 120 s, and finally washed in buffer W (50 mM Tris pH 8.0, 150 mM NaCl, 10 mM MgCl2, 200 µM UTP) for 60 s. In parallel, another 16 SSA sensors were loaded with 10 µg/mL biocytin alone, which acts as a quenching agent to block streptavidin sites on the sensor surface, and then washed with buffer W. These were used as reference sensors.
Initial screening was performed with DDU fragment set (965 fragments) at a single point concentration of 200 µM. The assay consisted of a 60 s baseline step, a 60 s association step, and a 60 s dissociation step. The assay was repeated with the streptavidin blocked control biosensors. Response levels for each compound were calculated by baseline subtraction, and the subtraction of the reference responses from the LmUSP responses. From the initial putative hits, compounds were further validated in a […] concentration series using 3-fold dilutions of each fragment ranging from 500 µM to 2.05 µM. Data were processed, and kinetic parameters were calculated, using the ForteBio software. A visual inspection of curves alongside steady state fitting was used to identify fragments of interest.

LmUSP [4] = molecular target: T1, LmUSP; details: read-out: Km value of UTP; cited from earlier work
[5] = BLI 7-point concentration series 2 µM to 500 µM, steady state fitting, read-out: Estimated KD

Work on `CC(Cc1c[nH]c2ccccc12)NC(=O)Cn1c(=O)[nH]c2ccccc2c1=O` (stereo not shown) [#8A] yielded an IC50 (LmUSP [1]) of over 250 µM and an IC50 (LmUGP) of over 250 µM.
Work on “LmUSP V330W/F383R mutant (Leishmania major; F383R/V330W)” yielded a Km ([2]; other: LmUSP V330W/F383R) of 276.45 ± 51.26 µM, a Vmax ([2]; other: LmUSP V330W/F383R) of 21.8 µmol/min/mg and a kcat ([2]; other: LmUSP V330W/F383R) of 25.6 s⁻¹. It also gave a kcat/Km ([2]; other: LmUSP V330W/F383R) of 93000 M⁻¹ s⁻¹.
With `O=C(Cn1c(=O)[nH]c2ccccc2c1=O)NCCc1c[nH]c2ccccc12` [#8] the inhibition at 500 µM (LmUSP [1]) was at least 80%, the IC50 (LmUSP [1]) was 78.1 to 107 µM and the “inhibition of hUGP (in words)” value (hUGP) was “little effect”. For the same compound, the “decrease of hUGP activity” value (hUGP) was “less than 20%”, the inhibition at 500 µM (LmUGP) was over 95% and the IC50 (LmUGP) was 120 to 151 µM.
With `COCCNC(=O)n1c(=O)oc2ccccc21` [DDD00102262] the Kd (LmUSP [3]; [5]) was 72.6 µM and the “Primary Binding Response” value (LmUSP [3]) was 0.077.
For `O=C(Cn1cnc2ccccc2c1=O)NCCc1c[nH]c2ccc(F)cc12` [#8E], the IC50 (LmUSP [1]) was 40.4 to 46.3 µM, the “inhibition of hUGP (in words)” value (hUGP) was “clear inhibition” and the IC50 (LmUGP) was 38 to 46.8 µM.
LmUSP wild type (Leishmania major) gave a Km ([2]; other: wild-type LmUSP) of 529.20 ± 24.60 µM, a Vmax ([2]; other: wild-type LmUSP) of 184 µmol/min/mg and a kcat ([2]; other: wild-type LmUSP) of 216 s⁻¹. For the same compound, the kcat/Km ([2]; other: wild-type LmUSP) was 409000 M⁻¹ s⁻¹.
“LmUSP V330W mutant (Leishmania major; V330W)” showed a Km ([2]; other: LmUSP V330W) of 1255.00 ± 145.66 µM, a Vmax ([2]; other: LmUSP V330W) of 272 µmol/min/mg and a kcat ([2]; other: LmUSP V330W) of 319 s⁻¹. It also gave a kcat/Km ([2]; other: LmUSP V330W) of 255000 M⁻¹ s⁻¹.
Work on `COc1ccc2[nH]cc(CCNC(=O)Cn3c(=O)[nH]c4ccccc4c3=O)c2c1` [#8C] yielded an IC50 (LmUSP [1]) of over 250 µM and an IC50 (LmUGP) of over 250 µM.
For `O=C(Cn1c(=O)[nH]c2ccccc2c1=O)Nc1ccc2[nH]ccc2c1` [#4], the inhibition at 500 µM (LmUSP [1]) was at least 80%, the IC50 (LmUSP [1]) was 135 to 175 µM and the “inhibition of hUGP (in words)” value (hUGP) was “little effect”. For the same compound, the “decrease of hUGP activity” value (hUGP) was “less than 20%”, the inhibition at 500 µM (LmUGP) was over 95% and the IC50 (LmUGP) was 126 to 134 µM.
Compound “LmUSP F383R mutant (Leishmania major; F383R)” has a Km ([2]; other: LmUSP F383R) of 364.00 ± 22.20 µM, a Vmax ([2]; other: LmUSP F383R) of 14.8 µmol/min/mg and a kcat ([2]; other: LmUSP F383R) of 17.3 s⁻¹. The kcat/Km ([2]; other: LmUSP F383R) was 47000 M⁻¹ s⁻¹.
In the case of `O=c1ccn([C@@H]2O[C@H](COP(=O)(O)OP(=O)(O)OP(=O)(O)O)[C@@H](O)[C@H]2O)c(=O)[nH]1` [UTP, uridine triphosphate, reference compound], the Kd (LmUSP [3]) is given as 89 µM and the Km (LmUSP [4]) is given as 100 µM.
In the case of `CC(C(=O)O)c1cccc(F)c1` (stereo not shown) [DDD01305586], the Kd (LmUSP [3]; [5]) is reported as 60.1 µM and the “Primary Binding Response” value (LmUSP [3]) is reported as 0.1541.
Compound “LmUSP V199W mutant (Leishmania major; V199W)” has a Km ([2]; other: LmUSP V199W) of 1007.25 ± 18.03 µM, a Vmax ([2]; other: LmUSP V199W) of 76.8 µmol/min/mg and a kcat ([2]; other: LmUSP V199W) of 90.2 s⁻¹. The kcat/Km ([2]; other: LmUSP V199W) was 89000 M⁻¹ s⁻¹.
With `O=C(Cn1cnc2ccccc2c1=O)NCCc1c[nH]c2ccc(Cl)cc12` [#8D] the IC50 (LmUSP [1]) was 170 to 195 µM, the “inhibition of hUGP (in words)” value (hUGP) was “clear inhibition” and the IC50 (LmUGP) was 193 to 242 µM.
In the case of `O=C(O)Cc1cccc(C(F)(F)F)c1` [DDD00095351], the Kd (LmUSP [3]; [5]) is reported as 83.3 µM and the “Primary Binding Response” value (LmUSP [3]) is reported as 0.127.
For `Cn1c(=O)n(CCN)c(=O)c2ccccc21` [DDD00808259], the Kd (LmUSP [3]; [5]) was 67.6 µM and the “Primary Binding Response” value (LmUSP [3]) was 0.1728.
With `O=C(Cn1c(=O)[nH]c2ccccc2c1=O)NCCc1c[nH]c2ccc(Cl)cc12` [#8B] the IC50 (LmUSP [1]) was 47.2 to 66.4 µM, the “inhibition of hUGP (in words)” value (hUGP) was “clear inhibition” and the IC50 (LmUGP) was 55.1 to 69.1 µM.
